Test results taken from PMC7738869, “A novel STAT3 inhibitor W2014-S regresses human non-small cell lung cancer xenografts and sensitizes EGFR-TKI acquired resistance” (Theranostics, 2021).
Several values for one entry are separate records, joined by “and”; a condition that tells them apart may be missing. Equal entries are not always repeated. Where two headings read alike, the source gives them in different places.

What was measured:
STAT3-STAT3 dimerization = STAT3-STAT3 dimerization (Homo sapiens, UniProt P40763); test: Co-immunoprecipitation of HA-STAT3 and Flag-STAT3 in HEK-293T cells; type: cell-based; design: expressed in transfected cells; details: 24 h, 50 ng/mL EGF 30 min
Sequence of STAT3-STAT3 dimerization (P40763 whole entry): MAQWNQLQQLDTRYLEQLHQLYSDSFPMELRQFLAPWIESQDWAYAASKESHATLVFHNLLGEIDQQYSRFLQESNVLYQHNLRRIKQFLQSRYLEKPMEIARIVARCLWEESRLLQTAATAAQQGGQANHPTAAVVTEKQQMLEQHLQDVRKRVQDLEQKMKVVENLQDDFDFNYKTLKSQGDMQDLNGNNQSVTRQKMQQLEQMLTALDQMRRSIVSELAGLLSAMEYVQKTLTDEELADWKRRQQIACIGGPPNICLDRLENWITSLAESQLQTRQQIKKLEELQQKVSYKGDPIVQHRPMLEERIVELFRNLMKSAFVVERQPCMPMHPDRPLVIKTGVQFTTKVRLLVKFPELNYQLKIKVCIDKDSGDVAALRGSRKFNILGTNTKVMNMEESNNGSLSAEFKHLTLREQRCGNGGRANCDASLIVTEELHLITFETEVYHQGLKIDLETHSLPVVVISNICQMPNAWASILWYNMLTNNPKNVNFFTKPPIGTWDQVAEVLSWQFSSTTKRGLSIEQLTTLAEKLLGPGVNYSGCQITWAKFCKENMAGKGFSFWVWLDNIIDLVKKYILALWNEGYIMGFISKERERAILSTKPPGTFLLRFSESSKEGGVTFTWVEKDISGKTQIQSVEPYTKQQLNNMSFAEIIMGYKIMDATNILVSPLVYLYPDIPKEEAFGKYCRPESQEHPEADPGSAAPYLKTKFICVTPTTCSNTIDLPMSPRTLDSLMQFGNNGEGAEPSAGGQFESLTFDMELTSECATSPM
Method: Cells or tumor tissue were lysed with RIPA buffer (Beyotime, Shanghai, China) supplemented with protease inhibitors (Beyotime, Shanghai, China) and phosphatase inhibitors (Bimake, USA). Lysates were denatured by heating for 5 min at 99 °C and loaded on 4-10% SDS-polyacrylamide gel electrophoresis. Then the proteins were transferred to polyvinylidene fluoride (PVDF) membranes (Millipore, USA). The membranes were blocked and probed with primary antibodies and secondary HPR-conjugated antibodies. At last the membranes were detected by chemiluminescence (Tanon, Shanghai, China). For co-immunoprecipitation experiments, 293T cells were plated and grew to about 80% confluency, then co-transfected with plasmids of HA-STAT3 and Flag-STAT3 using Lipofectamine 2000. […] Cells were lysed with IP RIPA buffer (Beyotime, Shanghai, China) supplemented with protease inhibitors (Beyotime, Shanghai, China) and phosphatase inhibitors (Bimake, America), and lysates were cultured with Anti-flag Affinity Gel (B23102, Bimake, USA) overnight at 4 ℃. The gel was washed by PBST for three times and added 1×loading buffer and denatured by heating for 5 min at 99 ℃. Then the proteins were resolved on SDS-PAGE, transferred to PVDF membranes and analysed with immunoblotting.

STAT3 = test: STAT3-dependent dual-luciferase reporter assay in 293T cells; type: cell-based, human; details: 293T, 0, 0.3, 1 μM, 24 h
Method: The STAT3-dependent luciferase reporter, pGL3-STAT3, contained seven copies of the STAT3-specific binding sequence ([…]) in the C-reactive protein gene promoter, and drove firefly luciferase expression. The new construct was confirmed by sequencing. For luciferase studies, 293T cells or A549 cells in 96-well plates were transiently co-transfected with the appropriate plasmids (10 ng TKRL as internal control vector for normalizing and 50 ng of pGL3-STAT3) using Lipofectamine 2000 (11668500, Invitrogen, Carlsbad, CA, USA) which was following the manufacturer's protocol. After 24 h, HEK-293T cells were treated with 0-1 μM W2014-S for 24 h, and stimulated with IL-6 (100 ng/mL, PeproTech) for 1 h or EGF (50 ng/mL, PeproTech) for 30 min. Subsequently, cytosolic extracts were prepared for dual-luciferase reporter assay.

Pharmacokinetic study = type: in vivo, SD rats; details: for MRT inf: read-out: MRTINF_obs
Method: W2014-S was given to SD rats (male, 230-260g, n = 6) by gavage and intravenous administration. The rats were fasted for 12 h before administration and remained fasting for 2 h. For oral gavage, W2014-S was dissolved in DMSO/0.5% HPMC (5/95, v/v/), and W2014-S was dissolved in DMSO/EtOH/PEG300/0.9% NaCl (5/5/40/50, v/v/v/v) for intravenous administration. The pharmacokinetic (PK) profiles were next evaluated in SD rats.

C[C@H](Oc1ccc(-c2nc3nc(C4=CCN(C(=O)OC(C)(C)C)CC4)ccc3[nH]2)cc1)c1ccccc1 [W2014-S]
binding of HA-STAT3 and Flag-STAT3 (STAT3 dimerization) (STAT3-STAT3 dimerization): inhibited the binding of HA-STAT3 and Flag-STAT3 in intact cells even at 0.3 μM | STAT3-dependent luciferase reporter activity induced by IL-6 (STAT3): dose-dependently inhibited | Concentration in rat plasma, individual animals 4-6 (Pharmacokinetic study; i.v. 3 mg/kg, 0.05 h, 3 mg/kg): 335 ng/mL and 339 ng/mL | Concentration in rat plasma, individual animals 4-6 (Pharmacokinetic study; i.v. 3 mg/kg, 0.25 h, 3 mg/kg): 145 ng/mL and 134 ng/mL | Concentration in rat plasma, individual animals 4-6 (Pharmacokinetic study; i.v. 3 mg/kg, 0.75 h, 3 mg/kg): 66.9 ng/mL and 80.1 ng/mL | Concentration in rat plasma, individual animals 4-6 (Pharmacokinetic study; i.v. 3 mg/kg, 2.00 h, 3 mg/kg): 17.6 ng/mL and 22.6 ng/mL | Concentration in rat plasma, individual animals 4-6 (Pharmacokinetic study; i.v. 3 mg/kg, 4.00 h, 3 mg/kg): 3.60 ng/mL and 5.00 ng/mL | Concentration in rat plasma, individual animals 4-6 (Pharmacokinetic study; i.v. 3 mg/kg, 8.00 h, 3 mg/kg): 1.10 ng/mL and 2.60 ng/mL and 2.20 ng/mL | Concentration in rat plasma, individual animals 4-6 (Pharmacokinetic study; i.v. 3 mg/kg, 24.0 h, 3 mg/kg): 1.30 ng/mL and 1.20 ng/mL | concentration at 0.05 h (Pharmacokinetic study; male, SD, rat, plasma, iv, 3 mg/kg, i.v. 3 mg/kg, 0.05 h, read-out: Concentration in rat plasma, individual animals 4-6): 454 ng/mL | concentration at 0.05 h (Pharmacokinetic study; male, SD, rat, plasma, iv, 3 mg/kg, i.v. 3 mg/kg, 0.05 h, read-out: Concentration in rat plasma, mean): 376 ng/mL | concentration at 0.25 h (Pharmacokinetic study; male, SD, rat, plasma, iv, 3 mg/kg, i.v. 3 mg/kg, 0.25 h, read-out: Concentration in rat plasma, individual animals 4-6): 159 ng/mL | concentration at 0.25 h (Pharmacokinetic study; male, SD, rat, plasma, iv, 3 mg/kg, i.v. 3 mg/kg, 0.25 h, read-out: Concentration in rat plasma, mean): 146 ng/mL | concentration at 0.75 h (Pharmacokinetic study; male, SD, rat, plasma, iv, 3 mg/kg, i.v. 3 mg/kg, 0.75 h, read-out: Concentration in rat plasma, individual animals 4-6): 59.3 ng/mL | concentration at 0.75 h (Pharmacokinetic study; male, SD, rat, plasma, iv, 3 mg/kg, i.v. 3 mg/kg, 0.75 h, read-out: Concentration in rat plasma, mean): 68.8 ng/mL | concentration at 2 h (Pharmacokinetic study; male, SD, rat, plasma, iv, 3 mg/kg, i.v. 3 mg/kg, 2.00 h, read-out: Concentration in rat plasma, individual animals 4-6): 13.4 ng/mL | concentration at 2 h (Pharmacokinetic study; male, SD, rat, plasma, iv, 3 mg/kg, i.v. 3 mg/kg, 2.00 h, read-out: Concentration in rat plasma, mean): 17.9 ng/mL | concentration at 4 h (Pharmacokinetic study; male, SD, rat, plasma, iv, 3 mg/kg, i.v. 3 mg/kg, 4.00 h, read-out: Concentration in rat plasma, individual animals 4-6): 2.9 ng/mL | concentration at 4 h (Pharmacokinetic study; male, SD, rat, plasma, iv, 3 mg/kg, i.v. 3 mg/kg, 4.00 h, read-out: Concentration in rat plasma, mean): 3.83 ng/mL | concentration at 8 h (Pharmacokinetic study; male, SD, rat, plasma, iv, 3 mg/kg, i.v. 3 mg/kg, 8.00 h): 1.97 ng/mL | concentration at 24 h (Pharmacokinetic study; male, SD, rat, plasma, iv, 3 mg/kg, i.v. 3 mg/kg, 24.0 h, read-out: Concentration in rat plasma, individual animals 4-6): 0.9 ng/mL | concentration at 24 h (Pharmacokinetic study; male, SD, rat, plasma, iv, 3 mg/kg, i.v. 3 mg/kg, 24.0 h, read-out: Concentration in rat plasma, mean): 1.13 ng/mL | half-life (Pharmacokinetic study; male, SD, rat, plasma, iv, 3 mg/kg, i.v. 3 mg/kg, individual animals 4-6): 15.3 h | AUC(0-inf) (Pharmacokinetic study; male, SD, rat, plasma, iv, 3 mg/kg, rat, i.v. 3 mg/kg, individual animals 4-6, read-out: AUCINF_obs): 228 ng·h/mL | AUC(0-t) (Pharmacokinetic study; male, SD, rat, plasma, iv, 3 mg/kg, rat, i.v. 3 mg/kg, individual animals 4-6, read-out: AUClast): 208 ng·h/mL | clearance (Pharmacokinetic study; male, SD, rat, plasma, iv, 3 mg/kg, rat, i.v. 3 mg/kg, individual animals 4-6, read-out: CL_obs): 219 mL/min/kg | MRT inf (Pharmacokinetic study; male, SD, rat, plasma, iv, 3 mg/kg, rat, i.v. 3 mg/kg, individual animals 4-6): 5.79 h | MRT inf (Pharmacokinetic study; male, SD, rat, plasma, iv, 3 mg/kg, rat, i.v. 3 mg/kg, mean): 6.3 h | concentration at 0.25 h (Pharmacokinetic study; male, SD, rat, plasma, po, 10 mg/kg, p.o. 10 mg/kg, 0.25 h, read-out: Concentration in rat plasma, mean): 19.6 ng/mL | concentration at 0.5 h (Pharmacokinetic study; male, SD, rat, plasma, po, 10 mg/kg, p.o. 10 mg/kg, 0.50 h): 22.5 ng/mL | concentration at 1 h (Pharmacokinetic study; male, SD, rat, plasma, po, 10 mg/kg, p.o. 10 mg/kg, 1.00 h): 16.1 ng/mL | concentration at 2 h (Pharmacokinetic study; male, SD, rat, plasma, po, 10 mg/kg, p.o. 10 mg/kg, 2.00 h, read-out: Concentration in rat plasma, individual animals 1-3): 5.7 ng/mL | concentration at 2 h (Pharmacokinetic study; male, SD, rat, plasma, po, 10 mg/kg, p.o. 10 mg/kg, 2.00 h, read-out: Concentration in rat plasma, mean): 7.23 ng/mL | concentration at 4 h (Pharmacokinetic study; male, SD, rat, plasma, po, 10 mg/kg, p.o. 10 mg/kg, 4.00 h, read-out: Concentration in rat plasma, mean): 7.83 ng/mL | concentration at 8 h (Pharmacokinetic study; male, SD, rat, plasma, po, 10 mg/kg, p.o. 10 mg/kg, 8.00 h): 0.633 ng/mL | concentration at 24 h (Pharmacokinetic study; male, SD, rat, plasma, po, 10 mg/kg, p.o. 10 mg/kg, 24.0 h, read-out: Concentration in rat plasma, mean): 0 ng/mL
